Values quoted from earlier work, collected in US10154980B2, “Anti-inflammatory omega-3 synergistic combinations” (LYCORED LTD., priority 2013, dated 2018).

Tested on: NO production
Conditions: background, literature references

Row | SMILES | inhibit NO production
1 | CC(C)=CCC/C(C)=C/C=C/C(C)=C/C=C/C(C)=C/C=C/C=C(C)/C=C/C=C(C)/C=C/C=C(\C)CCC=C(C)C [lycopene] | shown to inhibit NO production
2 | CC1=C[C@H](O)CC(C)(C)[C@H]1/C=C/C(C)=C/C=C/C(C)=C/C=C/C=C(C)/C=C/C=C(C)/C=C/C1=C(C)C[C@@H](O)CC1(C)C [lutein, (3R,3′R, 6′R)-beta,epsilon-carotene-3,3′-diol] | shown to inhibit NO production
